This is an account of results in patent publication US11851681B2, “Cell preparation method” (KYOTO PREFECTURAL PUBLIC UNIVERSITY CORPORATION, priority 2015, dated 2023).

Common to all, as to type: cell-based
For test [1], the system named is human dermal fibroblasts; HDFs. Briefly: Alizarin Red S staining and absorbance, compound panel, Examples 29-30. To be noted: calcification induction medium; compounds 2 μM (Pifthrin-α 5 μM, DZnep 50 nM); day 28; FIG. 33, 34. As to the method: The compounds added to the medium and the concentrations thereof are as follows. • I-BET151: 2 μM • Pifthrin-α: 5 μM • PD0325901: 2 μM • 2-Me-5HT: 2 μM • CX4945: 2 μM • CHIR99021: 2 μM • Forskolin: 2 μM • DZnep: 50 nM • D4476: 2 μM • SB431542: 2 μM • ALK5 i II: 2 μM.
In the experiment of Example 29, the solution after staining with the Alizarin Red S staining solution was collected in a 96 well plate and the absorbance (OD 550 nm) was measured with an absorption spectrometer.

Test [2] deals with human dermal fibroblasts; HDFs. Briefly: Alizarin Red S staining (staining figure), fibroblast to osteoblast, Example 1. To be noted: each compound 2 μM in calcification induction medium; day 24; FIG. 1. How it is done:
It was washed 3 times with sterile distilled water. […] The well after staining was washed with sterile distilled water and photographed.
The concentrations of the compounds are as follows: • D4476: 2 μM • ALK5 inhibitor II: 2 μM • SB431542: 2 μM.

Test [3] has as its system human dermal fibroblasts; HDFs. In words: Alizarin Red S staining (absorbance OD 550 nm), Example 2. To be noted: each compound 2 μM in calcification induction medium; day 24; FIG. 2. How it is done: (§1) The concentrations of the compounds are as follows: • D4476: 2 μM • SB431542: 2 μM • ALK5 inhibitor II: 2 μM.
Test [4] concerns human dermal fibroblasts; HDFs. Briefly: Real-time RT-PCR of Osteocalcin and Alkaline Phosphatase, Example 3. The conditions noted are these: each compound 2 μM in calcification induction medium; day 24; FIG. 3. How it is done: as §1
In general terms: Real-time PCR tracks product formation cycle by cycle.

Test [5] has as its system human dermal fibroblasts; HDFs. In words: Oil Red O staining, fibroblast to brown adipocyte, Example 12. To be noted: compound 2 μM in addition to T3 1 nM and Rosiglitazone 1 μM, adipocyte induction medium; day 14; FIG. 12. How it is done: (§2) The concentrations of the additives are as follows: • T3: 1 nM • Rosiglitazone: 1 μM • D4476: 2 μM • Pifithrin alpha [p53 inhibitor]: 5 μM • SB431542: 2 μM • ALK5 Inhibitor II: 2 μM.
Then, the cells were washed with sterile distilled water and photographed with a phase contrast microscope at ×100 magnification.

Test [6] concerns human dermal fibroblasts; HDFs. Briefly: Real-time RT-PCR of CIDEA, Example 13. To be noted: compound 2 μM in addition to T3 1 nM and Rosiglitazone 1 μM, adipocyte induction medium; day 14; FIG. 13. As to the method:
as §2

Test [7] deals with human dermal fibroblasts; HDFs. Briefly: Real-time RT-PCR of AdipoQ, Example 14. To be noted: D4476, SB431542, ALK5 Inhibitor II 2 μM, PD0325901 1 μM, in addition to T3 and Rosiglitazone; day 14; FIG. 14. How it is done: The concentrations of the additives are as follows: • T3: 1 nM • Rosiglitazone: 1 μM • D4476: 2 μM. • Pifithrin alpha [p53 inhibitor]: 5 μM • PD0325901: 1 μM • SB431542: 2 μM • ALK5 Inhibitor II: 2 μM.

Test [8] relates to human dermal fibroblasts; HDFs. Briefly: BODIPY staining and fluorescence intensity, Example 15. The conditions noted are these: compound 2 μM in addition to T3 1 nM and Rosiglitazone 1 μM; day 14; FIG. 15A, 15B. As to the method:
The concentrations of the additives are as follows: • T3: 1 nM • Rosiglitazone: 1 μM • D4476: 2 μM • SB431541: 2 μM • ALK5 inhibitor II: 2 μM.
The cells were fixed with 4% para-formaldehyde, washed with PBS(−), reacted for 5 min with BODIPY 493/503 (Invitrogen)/PBS solution at room temperature and washed 3 times with PBS. The cells were photographed with a fluorescence microscope at ×200 magnification and the fluorescence intensity was measured.

In test [9] the test system is Human normal skin-derived fibroblasts (HDFs). Briefly: Alizarin Red S and ALP staining, absorbance, TGF-β pathway inhibitor panel, Examples 31-32. The conditions noted are these: for efficiency in converting fibroblast to osteoblast (summary statement): description, conditions not given. How it is done:
On day 21, the culture medium was removed from a part of the well, washed with PBS(-), and fixed with a fixative. It was washed 3 times with sterile distilled water. […] In the experiment of Example 31, the solution after staining with the Alizarin Red S staining solution was collected in a 96 well plate and the absorbance (OD 550 nm) was measured with an absorption spectrometer.

The test system is the same in test [10]. In words: Real-time RT-PCR of UCP1, four inhibitors, Example 39. The conditions noted are these: 4 μM, 8 μM, 12 μM or 16 μM in adipocyte induction medium Day 1 to Day 8, then compound-free to day 14; FIG. 43. As to the method: The addition concentration of the compound was 4 μM, 8 μM, 12 μM or 16 μM. […] Thereafter, in Day 9-Day 14, culturing was performed in a medium free of ALK5 inhibitor II, LY2157299, SB431542, D4476.

For test [11] the test system is unchanged. In words: Immunostaining of UCP1, four inhibitors, Example 40. The conditions noted are these: LY2157299 8 μM, SB431542 4 μM, D4476 4 μM, Day 1 to Day 8, day 14, FIG. 44.
Procedure: Human normal skin-derived fibroblasts (HDFs) were suspended in a general medium (DMEM added with 10% FBS). […] The adipocyte induction medium is DMEM added with 1 nM T3, 1 μM Rosiglitazone, 0.5 mM 3-isobutyl-1-methylxanthine (IBMX), 0.5 μM dexamethasone, 1 μg/mL Insulin and 10% FBS. Once every 2 days, the culture medium was exchanged with a fresh one, and culturing was performed from Day 1 to Day 8. Thereafter, from Day 9 to Day 14, the cells were cultured in an adipocyte induction medium free of ALK5 inhibitor II, LY2157299, SB431542, D4476. On day 14, the culture medium was removed by suction from each well, and washed with PBS(−). After fixing with 4% para-formaldehyde, the well was washed with PBS (−), Permanent wave Buffer (0.2% Triton-X addition PBS) was added and the well was incubated for 15 min. After washing 3 times with PBS(−), Blocking One was added, and the mixture was incubated at room temperature for 60 min. Anti-UCP-1 antibody (RD MAB6158) was added and the mixture was reacted for 2 hrs at room temperature, and washed 3 times with Wash buffer. CF488-conjugated anti-mouse Ig antibody (Biotum 20014) was added and the mixture was reacted for 2 hrs at room temperature, and washed 3 times with PBS(−). After nuclear staining with SlowFade Gold antifade reagent with DAPI manufactured by Lifetechnology, the cells were photographed with a fluorescence microscope at ×100 magnification.
In test [12] the test system is human dermal fibroblasts; HDFs. Briefly: Bodipy staining in WA medium, four inhibitors, Example 48. The conditions noted are these: day 12, FIG. 52.
For test [13], the system named is human dermal fibroblasts; HDFs. Briefly: Bodipy staining quantification in WA medium, four inhibitors, Example 49. The conditions noted are these: 16 μM compound and 1 μM Rosiglitazone, day 12, FIG. 53.
For test [14], the system named is human dermal fibroblasts; HDFs. In words: Real-time PCR of AdipoQ, FABP4, PPAR-γ, four inhibitors with Rosiglitazone, Example 50. The conditions noted are these: WA medium added with 1 μM Rosiglitazone and 16 μM compound; day 12. The text has this:
On day 12, RNA was recovered from the cells and, in the same manner as in Example 47, mRNA of AdipoQ, FABP4 (mature adipocyte marker), and PPAR-γ (preadipocyte marker) was quantified.

The subject of test [15] is Human normal skin-derived fibroblasts (HDFs). Briefly: Real-time RT-PCR of ALP, Osteocalcin, Bonesialoprotein, Example 35. To be noted: day 18, FIG. 39. As to the method: The concentrations of the small molecule compound or cytokine added are as follows. • ALK5 i II: 4 μM • 1α,25-dihydroxy Vitamin D3 (VD3): 5 nM • Human insulin-like growth factor-1 (IGF-1): 100 ng/ml.

Regarding `Cc1[nH]c2ccc(O)cc2c1CCN` [2-Me-5HT], the “conversion from fibroblast to osteoblast, Alizarin Red S staining and absorbance” value (from here on “conversion from fibroblast to osteoblast”) in [1] is given as “do not induce conversion from fibroblast to osteoblast”.
The same measure, in the same setting: the value for `Cc1c[nH]c(-c2cnc(NCCNc3ccc(C#N)cn3)nc2-c2ccc(Cl)cc2Cl)n1` [CHIR] was “do not induce conversion from fibroblast to osteoblast”.
In the case of `NC(=O)c1ccc(-c2nc(-c3ccc4c(c3)OCCO4)c(-c3ccccn3)[nH]2)cc1` [D4476, 4-[4-(2,3-dihydro-1,4-benzodioxin-6-yl)-5-(2-pyridinyl) 1H-imidazol-2-yl]-benzamide], the “conversion of human fibroblast to osteoblast, Alizarin Red S staining (staining figure)” value in [2] is recorded as “converted to osteoblast having calcified is bone matrix production ability”. For the same molecule, the “conversion of human fibroblast to osteoblast, Alizarin Red S staining (absorbance OD 550 nm)” value in test [3] is “converted to osteoblast having calcified bone matrix production ability”. The “conversion of human fibroblast to osteoblast, Osteocalcin and Alkaline Phosphatase mRNA” value in test [4] is “converted to osteoblast expressing osteocalcin and alkaline phosphatase gene”. The “conversion of fibroblast to brown adipocyte, Oil Red O staining” value in [5] is given as “converted fibroblast to brown adipocyte”. Also, in test [6], the “conversion of fibroblast to brown adipocytes, CIDEA mRNA” value is given as “converted fibroblast to brown adipocytes expressing mRNA of CIDEA gene”. Further, the “conversion of fibroblast to brown adipocytes, AdipoQ mRNA” value in [7] is on record as “converted fibroblast to brown adipocytes expressing mRNA of AdipoQ gene”. For the same molecule, the “conversion of fibroblast to brown adipocytes, BODIPY staining and fluorescence intensity” value in [8] is “converted fibroblast to brown adipocytes having lipid droplets stained with BODIPY”. The “conversion from fibroblast to osteoblast” value in test [1] is “induce conversion from fibroblast to osteoblast”. Moreover, the “efficiency in converting fibroblast to osteoblast (summary statement)” value in test [9] is recorded as “highly efficient in converting fibroblast to osteoblast”. For the same molecule, in test [10], the “conversion of fibroblast to brown adipocyte, UCP1 mRNA” value is on record as “converted fibroblast to brown adipocyte strongly expressing UCP1 gene”. Also, the “conversion of fibroblast to brown adipocyte, UCP1 protein” value in test [11] (ALK5 inhibitor II 4 μM) is given as “converted fibroblast to brown adipocyte expressing UCP1 protein”. Further, the “staining with anti-UCP1 antibody” value in test [11] (groups 3-6: ALK5 inhibitor II 4 μM) is listed as “many cells were stained with anti-UCP1 antibody”. Besides, in [12] (WA medium added with 16 μM compound alone), the “lipid droplets stained with Bodipy, inhibitor alone” value was “only a few cells contained lipid droplets stained with Bodipy”. Besides, the “lipid droplets stained with Bodipy / conversion to white adipocyte, inhibitor and Rosiglitazone” value in [12] (WA medium added with 16 μM compound and 1 μM Rosiglitazone) is listed as “many cells were stained”. The “fat accumulation (BODIPY) / conversion to white adipocyte, co-addition of Rosiglitazone” value in [13] is “more strongly induced fat accumulation than by the addition of Rosiglitazone alone”. The “conversion of human fibroblast to white adipocyte (mRNA markers)” value in test [14] is “converted human fibroblast to white adipocyte”.
Consider `Nc1nccc2c1ncn2[C@@H]1C=C(CO)C(O)[C@@H]1O` (stereo partly drawn) [DZnep], for which the “conversion from fibroblast to osteoblast” value in [1] is reported as “do not induce conversion from fibroblast to osteoblast”.
Still for that read-out and setting: the result for `COc1cc2c(cc1-c1c(C)noc1C)ncc1[nH]c(=O)n([C@H](C)c3ccccn3)c12` [I-BET] reads “do not induce conversion from fibroblast to osteoblast”.
As for `O=C(NOC[C@H](O)CO)c1ccc(F)c(F)c1Nc1ccc(I)cc1F` [PD0325901], the “conversion of fibroblast to brown adipocytes, AdipoQ mRNA” value in [7] is on record as “converted fibroblast to brown adipocytes expressing mRNA of AdipoQ gene”. In test [1], the “conversion from fibroblast to osteoblast” value is “do not induce conversion from fibroblast to osteoblast”.
Consider `Cc1ccc(C(=O)Cn2c3c(sc2=N)CCCC3)cc1` [Pifthrin-α], for which, in [1], the “conversion from fibroblast to osteoblast” value was “do not induce conversion from fibroblast to osteoblast”.
With `Fc1ccc(Cl)cc1-c1nc(Nc2ccncc2)c2nccnc2n1` [SD208, 2-(5-Chloro-2-fluorophenyl)-4-[(4-pyridyl)amino]pteridine], in [9] (calcification induction medium, compounds 1 or 4 μM, TGF-β 10 ng/ml, day 21, FIG. 35, 36), the “conversion of human fibroblast to osteoblast, Alizarin Red S / ALP staining and absorbance” value is given as “can strongly convert human fibroblast to osteoblast”. For the same molecule, the “efficiency in converting fibroblast to osteoblast (summary statement)” value in [9] is “highly efficient in converting fibroblast to osteoblast”.
As for `C=C1/C(=C\C=C2/CCC[C@]3(C)[C@@H]([C@H](C)CCCC(C)(C)O)CC[C@@H]23)C[C@@H](O)C[C@@H]1O` [VD3, 1α,25-dihydroxy Vitamin D3], the “mRNA expression of OC, ALK5 i II and VD3 compared to ALK5 i II” value in test [15] (VD3 5 nM added with ALK5 i II 4 μM) is given as “significantly increased”.
Turning to “IGF-1: Human insulin-like growth factor-1”, the “mRNA expression of BSP, ALK5 i II and IGF-1 compared to ALK5 i II” value in test [15] (IGF-1 100 ng/ml added with ALK5 i II 4 μM) is reported as “further significantly increased”.
